From BindingDB's records for doi:10.1021/jm801354e (University of Illinois At Chicago, 2009)
Where a name gives a salt, the structure may show the parent alone.

How the values were obtained:
[1] = target: T1, 5-hydroxytryptamine receptor 2C (Homo sapiens, UniProt P28335); test: Displacement of [3H]mesulergine from 5HT2C receptor
T1 sequence (P28335 whole entry): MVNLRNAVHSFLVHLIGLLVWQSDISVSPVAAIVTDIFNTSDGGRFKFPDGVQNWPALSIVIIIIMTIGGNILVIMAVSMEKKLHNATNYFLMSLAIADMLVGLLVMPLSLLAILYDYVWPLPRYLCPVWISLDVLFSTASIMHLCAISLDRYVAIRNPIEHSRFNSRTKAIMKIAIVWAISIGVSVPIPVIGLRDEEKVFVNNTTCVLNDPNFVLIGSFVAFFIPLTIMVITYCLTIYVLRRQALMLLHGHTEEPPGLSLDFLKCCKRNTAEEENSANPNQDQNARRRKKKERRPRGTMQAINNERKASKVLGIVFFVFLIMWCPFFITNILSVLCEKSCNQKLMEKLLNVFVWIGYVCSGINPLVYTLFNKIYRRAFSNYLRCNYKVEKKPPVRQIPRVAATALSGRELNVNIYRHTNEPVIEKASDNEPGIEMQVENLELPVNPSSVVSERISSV

[2] = target: Sodium-dependent noradrenaline transporter (Homo sapiens, UniProt P23975); test: Displacement of [3H]nisoxetine from NET
Sodium-dependent noradrenaline transporter, sequence (P23975 whole entry): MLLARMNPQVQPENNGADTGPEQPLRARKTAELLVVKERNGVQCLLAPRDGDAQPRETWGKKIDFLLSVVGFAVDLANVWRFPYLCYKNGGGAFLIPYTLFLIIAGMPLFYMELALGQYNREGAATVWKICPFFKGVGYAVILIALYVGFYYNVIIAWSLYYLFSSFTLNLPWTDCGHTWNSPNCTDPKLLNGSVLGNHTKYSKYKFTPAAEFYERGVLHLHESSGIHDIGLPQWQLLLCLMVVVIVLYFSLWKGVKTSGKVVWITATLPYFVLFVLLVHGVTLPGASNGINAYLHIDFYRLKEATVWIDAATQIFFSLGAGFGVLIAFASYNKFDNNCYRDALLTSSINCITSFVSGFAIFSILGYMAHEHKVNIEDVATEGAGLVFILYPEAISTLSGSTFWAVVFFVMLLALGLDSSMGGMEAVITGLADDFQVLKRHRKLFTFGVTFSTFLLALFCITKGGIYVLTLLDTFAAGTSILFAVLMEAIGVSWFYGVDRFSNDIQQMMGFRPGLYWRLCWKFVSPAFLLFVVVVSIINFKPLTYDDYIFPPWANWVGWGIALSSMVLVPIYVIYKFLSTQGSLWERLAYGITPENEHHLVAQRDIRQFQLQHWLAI

[3] = target: Sodium-dependent dopamine transporter (Homo sapiens, UniProt Q01959); test: Displacement of [3H]WIN-35428 from DAT
Sodium-dependent dopamine transporter, sequence (Q01959 whole entry): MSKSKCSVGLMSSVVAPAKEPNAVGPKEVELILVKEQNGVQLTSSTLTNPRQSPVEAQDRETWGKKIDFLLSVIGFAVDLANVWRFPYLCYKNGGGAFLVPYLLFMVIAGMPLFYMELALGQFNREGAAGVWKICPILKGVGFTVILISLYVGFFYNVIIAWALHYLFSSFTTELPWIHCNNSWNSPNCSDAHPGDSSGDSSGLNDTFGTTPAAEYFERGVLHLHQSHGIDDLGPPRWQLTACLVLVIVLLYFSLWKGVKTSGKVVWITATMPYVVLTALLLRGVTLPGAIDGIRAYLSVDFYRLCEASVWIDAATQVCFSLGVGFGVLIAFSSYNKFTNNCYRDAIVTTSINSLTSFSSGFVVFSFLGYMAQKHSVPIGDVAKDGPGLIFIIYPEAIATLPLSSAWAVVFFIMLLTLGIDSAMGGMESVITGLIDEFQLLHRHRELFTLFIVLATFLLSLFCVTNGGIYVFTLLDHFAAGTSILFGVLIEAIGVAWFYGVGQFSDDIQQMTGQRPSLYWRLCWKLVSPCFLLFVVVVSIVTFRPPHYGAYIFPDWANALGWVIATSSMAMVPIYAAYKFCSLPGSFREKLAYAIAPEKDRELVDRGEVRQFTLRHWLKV

[4] = target: T2, 5-hydroxytryptamine receptor 2A (Homo sapiens, UniProt P28223); test: Agonist activity at human 5HT2A receptor expressed in HEK293 cells assessed as calcium flux by FLIPR assay
T2 sequence (P28223 whole entry): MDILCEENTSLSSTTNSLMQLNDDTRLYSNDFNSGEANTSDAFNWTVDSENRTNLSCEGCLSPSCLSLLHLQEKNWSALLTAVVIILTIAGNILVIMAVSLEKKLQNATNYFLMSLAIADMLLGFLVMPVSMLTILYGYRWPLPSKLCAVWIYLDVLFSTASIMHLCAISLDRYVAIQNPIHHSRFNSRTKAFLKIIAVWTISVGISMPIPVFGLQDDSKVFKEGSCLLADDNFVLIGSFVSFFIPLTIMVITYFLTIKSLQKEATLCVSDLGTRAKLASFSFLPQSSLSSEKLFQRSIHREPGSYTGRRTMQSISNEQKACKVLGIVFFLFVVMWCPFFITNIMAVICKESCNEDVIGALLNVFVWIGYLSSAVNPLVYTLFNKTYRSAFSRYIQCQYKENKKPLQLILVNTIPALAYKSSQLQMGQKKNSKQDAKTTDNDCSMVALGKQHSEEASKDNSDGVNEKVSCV

[5] = target: T3, 5-hydroxytryptamine receptor 2B (Homo sapiens, UniProt P41595); test: Agonist activity at human 5HT2B receptor expressed in HEK293 cells assessed as calcium flux by FLIPR assay
T3 sequence (P41595 whole entry): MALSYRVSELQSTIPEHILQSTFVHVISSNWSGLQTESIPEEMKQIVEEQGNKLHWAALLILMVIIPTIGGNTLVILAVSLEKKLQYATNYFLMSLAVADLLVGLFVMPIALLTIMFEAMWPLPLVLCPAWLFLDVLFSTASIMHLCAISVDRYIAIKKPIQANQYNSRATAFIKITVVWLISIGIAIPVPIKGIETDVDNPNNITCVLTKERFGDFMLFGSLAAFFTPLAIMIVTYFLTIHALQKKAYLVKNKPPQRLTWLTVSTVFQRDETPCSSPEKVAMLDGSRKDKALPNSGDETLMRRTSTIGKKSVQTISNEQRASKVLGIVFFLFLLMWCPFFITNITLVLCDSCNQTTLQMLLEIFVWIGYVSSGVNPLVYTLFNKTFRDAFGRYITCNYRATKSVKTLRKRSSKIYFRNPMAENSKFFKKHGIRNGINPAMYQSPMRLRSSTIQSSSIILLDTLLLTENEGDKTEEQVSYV

[6] = target: T2, 5-hydroxytryptamine receptor 2A; test: Displacement of [3H]ketanserin from human 5HT2A receptor
[7] = target: T3, 5-hydroxytryptamine receptor 2B; test: Displacement of [3H]LSD from human 5HT2B receptor
[8] = target: T1, 5-hydroxytryptamine receptor 2C; test: Agonist activity at human 5HT2C receptor expressed in HEK293 cells assessed as calcium flux by FLIPR assay
[9] = target: Sodium-dependent serotonin transporter (Homo sapiens, UniProt P31645); test: Displacement of [3H]citalopram from SERT
Sodium-dependent serotonin transporter, sequence (P31645 whole entry): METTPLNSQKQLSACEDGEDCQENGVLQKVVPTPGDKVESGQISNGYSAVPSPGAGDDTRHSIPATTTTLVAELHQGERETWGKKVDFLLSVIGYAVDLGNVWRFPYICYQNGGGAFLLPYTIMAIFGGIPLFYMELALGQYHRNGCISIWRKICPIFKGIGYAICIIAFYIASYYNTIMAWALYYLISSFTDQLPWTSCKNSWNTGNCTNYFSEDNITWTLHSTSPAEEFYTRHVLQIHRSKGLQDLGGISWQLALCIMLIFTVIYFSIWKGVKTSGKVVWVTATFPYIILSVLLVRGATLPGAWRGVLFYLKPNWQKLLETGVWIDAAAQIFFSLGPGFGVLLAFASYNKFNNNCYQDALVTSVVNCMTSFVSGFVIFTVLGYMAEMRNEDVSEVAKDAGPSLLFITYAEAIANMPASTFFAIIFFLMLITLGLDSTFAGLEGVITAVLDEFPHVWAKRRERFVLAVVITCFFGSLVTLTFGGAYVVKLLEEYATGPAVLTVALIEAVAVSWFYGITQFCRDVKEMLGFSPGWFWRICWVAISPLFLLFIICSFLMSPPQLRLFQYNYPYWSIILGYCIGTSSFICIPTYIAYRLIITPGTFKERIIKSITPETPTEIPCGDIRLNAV

`NC[C@H]1C[C@@H]1c1ccc(F)cc1` (relative stereo) [trans-[2-(4-Fluorophenyl)cyclopropyl]methylamine Hydrochloride] was tested. Which Ki [1] did it give?
The Ki was 242 nM.

And the Ki [2]?
Its Ki is 6780 nM.

What about the Ki [3] of the same molecule?
The Ki was 3260 nM.

And the EC50 [4]?
The EC50 was 508 nM.

What about the EC50 [5] of the same molecule?
Its EC50 is 21 nM.

What about the Ki [6] of the same molecule?
The Ki was 2780 nM.

And the Ki [7]?
Its Ki is 89 nM.

What about the EC50 [8] of the same molecule?
The EC50 was 5.4 nM.

What about the Ki [9] of the same molecule?
The Ki was 2710 nM.
